Our source for the IC50 values is US20250129028A1, “COMPOUNDS AND METHODS FOR YAP/TEAD MODULATION AND INDICATIONS THEREFOR” (Opna Bio SA, priority 2022, published 2025).

By IC50 is commonly meant the concentration needed to halve the response being measured.

This experiment relates to TEAD-dependent transcription. As to the kind of experiment: TEAD-dependent transcription cell-based reporter assay (MSTO-211H+12XGTIIC luciferase). The following applies: Homo sapiens; MSTO-211H+12XGTIIC cell line, luciferase signal normalized to cell viability, 24 hours compound incubation; read-out: MSTO-211H GMean IC50 (uM) Cell Assay Reporter Cell Variant: TEAD. On the set-up: species or system human. The method in brief: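 MSTO-211H mesothelioma cells stably carrying a 12xGTIIC TEAD-response-element luciferase reporter, treated with serial compound dilutions for 24 h at 37 °C. Luminescence normalized to CellTiter-Fluor viability signal; % inhibition versus DMSO and 20 μM K-975 controls, IC50 by nonlinear regression.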
Consider `O=C(CCS(=O)(=O)C(F)(F)F)N1CCc2ccc(Oc3ccc(Cl)cc3)cc2C1` [P-0091, 1-(7-(4-chlorophenoxy)-3,4-dihydroisoquinolin-2(1H)-yl)-3-((trifluoro-methyl)sulfonyl)propan-1-one], for which the IC50 is 0.001 to 10 µM. Regarding `Nc1nccc(C(=O)N2CCc3ccc(Oc4ccc(C(F)(F)F)cc4)cc3C2)n1` [P-0092, (2-aminopyrimidin-4-yl)-(7-(4-(trifluoromethyl)-phenoxy)-3,4-dihydroiso-quinolin-2(1H)-yl)meth-anone], the IC50 lay in the range of 0.001 to 10 µM.

Turning to `Nc1ncc(CC(=O)N2CCc3ccc(Oc4ccc(C(F)(F)F)cc4)cc3C2)s1` [P-0093, 2-(2-aminothiazol-5-yl)-1-(7-(4-(trifluoromethyl)-phenoxy)-3,4-dihydroiso-quinolin-2(1H)-yl)ethan-1-one], the IC50 is 0.001 to 10 µM. As to `CN(C)CCC(=O)N1CCc2ccc(Oc3ccc(C(F)(F)F)c(F)c3)cc2C1` [P-0094, 3-(dimethylamino)-1-(7-(3-fluoro-4-(trifluoro-methyl)phenoxy)-3,4-dihydroisoquinolin-2(1H)-yl)propan-1-one], the IC50 fell in the range of 0.001 to 10 µM.

Turning to `CN1CCN(CCC(=O)N2CCc3ccc(Oc4ccc(C(F)(F)F)c(F)c4)cc3C2)CC1` [P-0095, 1-(7-(3-fluoro-4-(trifluoromethyl)phenoxy)-3,4-dihydroisoquinolin-2(1H)-yl)-3-(4-methylpiperazin-1-yl)propan-1-one], the IC50 fell in the range of 0.001 to 10 µM. As to `NC(=O)NCCC(=O)N1CCc2ccc(Oc3ccc(C(F)(F)F)cc3)cc2C1` [P-0096, 1-(3-oxo-3-(7-(4-(trifluoromethyl)phen-oxy)-3,4-dihydroisoquin-olin-2(1H)-yl)propyl)urea], the IC50 lay within 0.001 to 10 µM. As for `CN1CC(C(=O)N2CCc3ccc(Oc4ccc(C(F)(F)F)c(F)c4)cc3C2)C1` [P-0097, (7-(3-fluoro-4-(trifluoro-methyl)phenoxy)-3,4-dihydroisoquinolin-2(1H)-yl)(1-methylazet-idin-3-yl)methanone], the 50% inhibitory concentration (IC50) was 0.001 to 10 µM. Take `N=C(N)NCC(=O)N1CCc2ccc(Oc3ccc(C(F)(F)F)cc3)cc2C1` [P-0098, 1-(2-oxo-2-(7-(4-(trifluoromethyl)phen-oxy)-3,4-dihydroiso-quinolin-2(1H)-yl)-ethyl)guanidine]: the IC50 fell in the range of 0.001 to 10 µM. On to `O=C(Cc1cn[nH]c1)N1CCc2ccc(Oc3ccc(C(F)(F)F)cc3)cc2C1` [P-0099, 2-(1H-pyrazol-4-yl)-1-(7-(4-(trifluoromethyl)phen-oxy)-3,4-dihydroisoquin-olin-2(1H)-yl)ethan-1-one], for which the IC50 is 10 to 100 µM. For `O=C(CNC(=O)C(F)(F)F)N1CCc2ccc(Oc3ccc(C(F)(F)F)cc3)cc2C1` [P-0100, 2,2,2-trifluoro-N-(2-oxo-2-(7-(4-(trifluoromethyl)-phenoxy)-3,4-dihydroiso-quinolin-2(1H)-yl)ethyl)-acetamide], the IC50 was 0.001 to 10 µM.

For the molecule `CS(=O)(=O)NCCC(=O)N1CCc2ccc(Oc3ccc(C(F)(F)F)cc3)cc2C1` [P-0101, N-(3-oxo-3-(7-(4-(trifluoromethyl)phen-oxy)-3,4-dihydroisoquin-olin-2(1H)-yl)propyl)-methanesulfonamide], the IC50 lay in the range of 0.001 to 10 µM.

In the case of `NS(=O)(=O)N1CC(C(=O)N2CCc3ccc(Oc4ccc(C(F)(F)F)cc4)cc3C2)C1` [P-0102, 3-(7-(4-(trifluoromethyl)-phenoxy)-1,2,3,4-tetra-hydroisoquinoline-2-carbonyl)azetidine-1-sulfonamide], the IC50 fell in the range of 0.001 to 10 µM. With `O=C(c1cc(C(F)F)[nH]n1)N1CCc2ccc(Oc3ccc(C(F)(F)F)cc3)cc2C1` [P-0103, (5-(difluoromethyl)-1H-pyrazol-3-yl)(7-(4-(trifluoromethyl)phen-oxy)-3,4-dihydroisoquin-olin-2(1H)-yl)methanone], the IC50 was in the range of 0.001 to 10 µM. Next, `NC(=O)NCC(=O)N1CCc2ccc(Oc3ccc(Cl)cc3)cc2C1` [P-0104, 1-(2-(7-(4-chlorophen-oxy)-3,4-dihydroisoquin-olin-2(1H)-yl)-2-oxoeth-yl)urea]: 0.001 to 10 µM.

`CN1CCC(C(=O)N2CCc3ccc(Oc4ccc(C(F)(F)F)c(F)c4)cc3C2)C1` (stereo not shown) [P-0105, (7-(3-fluoro-4-(trifluoro-methyl)phenoxy)-3,4-dihydroisoquinolin-2(1H)-yl)(1-methylpyr-rolidin-3-yl)methanone]: the IC50 fell in the range of 0.001 to 10 µM. As for `N=C(N)NCCC(=O)N1CCc2ccc(Oc3ccc(C(F)(F)F)cc3)cc2C1` [P-0106, 1-(3-oxo-3-(7-(4-(trifluoromethyl)phen-oxy)-3,4-dihydroisoquin-olin-2(1H)-yl)propyl)-guanidine], the IC50 is 0.001 to 10 µM.

As for `Nc1nc(C(=O)N2CCc3ccc(Oc4ccc(C(F)(F)F)cc4)cc3C2)c[nH]1` [P-0107, (2-amino-1H-imidazol-4-yl)(7-(4-(trifluoromethyl)-phenoxy)-3,4-dihydroiso-quinolin-2(1H)-yl)meth-anone], the IC50 was 0.001 to 10 µM.

As to `O=C(c1cocn1)N1CCc2ccc(Oc3ccc(C(F)(F)F)cc3)cc2C1` [P-0108, oxazol-4-yl(7-(4-(trifluoromethyl)phen-oxy)-3,4-dihydroisoquin-olin-2(1H)-yl)methanone], the IC50 is 0.001 to 10 µM. As for `CN1CCC(C(=O)N2CCc3ccc(Oc4ccc(C(F)(F)F)c(F)c4)cc3C2)CC1` [P-0109, (7-(3-fluoro-4-(trifluoro-methyl)phenoxy)-3,4-dihydroisoquinolin-2(1H)-yl)(1-methylpiper-idin-4-yl)methanone], the figure is 0.001 to 10 µM; as for `CN(C)CCCC(=O)N1CCc2ccc(Oc3ccc(C(F)(F)F)c(F)c3)cc2C1` [P-0110, 4-(dimethylamino)-1-(7-(3-fluoro-4-(trifluoro-methyl)phenoxy)-3,4-dihydroisoquinolin-2(1H)-yl)butan-1-one], 0.001 to 10 µM; as for `CN(C)C1CC(C(=O)N2CCc3ccc(Oc4ccc(C(F)(F)F)c(F)c4)cc3C2)C1` (stereo not shown) [P-0111, (3-(dimethylamino)cyclo-butyl)(7-(3-fluoro-4-(trifluoromethyl)phen-oxy)-3,4-dihydroisoquin-olin-2(1H)-yl)methanone], 0.001 to 10 µM. `CC(C)(C)OC(=O)NCC(=O)N1CCc2ccc(Oc3ccc(C(F)(F)F)c(F)c3)cc2C1` [P-0112, tert-butyl (2-(7-(3-fluoro-4-(trifluoromethyl)phen-oxy)-3,4-dihydroisoquin-olin-2(1H)-yl)-2-oxoeth-yl)carbamate]: the IC50 lay within 0.001 to 10 µM.

For `NCC(=O)N1CCc2ccc(Oc3ccc(C(F)(F)F)c(F)c3)cc2C1` [P-0113, 2-amino-1-(7-(3-fluoro-4-(trifluoromethyl)phen-oxy)-3,4-dihydroisoquin-olin-2(1H)-yl)ethan-1-one], the IC50 was in the range of 0.001 to 10 µM. As for `O=C(CNS(=O)(=O)C(F)(F)F)N1CCc2ccc(Oc3ccc(C(F)(F)F)c(F)c3)cc2C1` [P-0114, 1,1,1-trifluoro-N-(2-(7-(3-fluoro-4-(trifluoromethyl)phenoxy)-3,4-dihydroisoquinolin-2(1H)-yl)-2-oxoethyl)methanesulfonamide], the figure is 0.001 to 10 µM.

For the molecule `C=CC(=O)NCC(=O)N1CCc2ccc(Oc3ccc(C(F)(F)F)c(F)c3)cc2C1` [P-0115, N-(2-(7-(3-fluoro-4-(trifluoromethyl)phen-oxy)-3,4-dihydroisoquin-olin-2(1H)-yl)-2-oxoeth-yl)acrylamide], the IC50 lay within 0.001 to 10 µM.

Turning to `CN(C)S(=O)(=O)NCC(=O)N1CCc2ccc(Oc3ccc(C(F)(F)F)c(F)c3)cc2C1` [P-0116, N,N-dimethyl-N′-(2-(7-(3-fluoro-4-(trifluoro-methyl)phenoxy)-3,4-dihydroisoquinolin-2(1H)-yl)-2-oxoethyl)-sulfamide], the IC50 was 0.001 to 10 µM. As to `O=C(CNS(=O)(=O)C1CC1)N1CCc2ccc(Oc3ccc(C(F)(F)F)c(F)c3)cc2C1` [P-0117, N-(2-(7-(3-fluoro-4-(trifluoromethyl)phen-oxy)-3,4-dihydroisoquin-olin-2(1H)-yl)-2-oxoeth-yl)cyclopropanesulfon-amide], the IC50 is 0.001 to 10 µM. Next, `C=CC(=O)N1CC(C(=O)N2CCc3ccc(Oc4ccc(C(F)(F)F)c(F)c4)cc3C2)C1` [P-0118, 1-(3-(7-(3-fluoro-4-(trifluoromethyl)phen-oxy)-1,2,3,4-tetrahydro-isoquinoline-2-carbon-yl)azetidin-1-yl)prop-2-en-1-one]: 0.001 to 10 µM; `C=CC(=O)N1CCC(C(=O)N2CCc3ccc(Oc4ccc(C(F)(F)F)c(F)c4)cc3C2)C1` (stereo not shown) [P-0119, 1-(3-(7-(3-fluoro-4-(trifluoromethyl)phen-oxy)-1,2,3,4-tetrahydro-isoquinoline-2-carbon-yl)pyrrolidin-1-yl)prop-2-en-1-one]: 0.001 to 10 µM; `C=CC(=O)N1CCCC(C(=O)N2CCc3ccc(Oc4ccc(C(F)(F)F)c(F)c4)cc3C2)C1` (stereo not shown) [P-0120, 1-(3-(7-(3-fluoro-4-(trifluoromethyl)phen-oxy)-1,2,3,4-tetrahydro-isoquinoline-2-carbon-yl)piperidin-1-yl)prop-2-en-1-one]: 0.001 to 10 µM. Next, `C=CC(=O)N1CCC(C(=O)N2CCc3ccc(Oc4ccc(C(F)(F)F)c(F)c4)cc3C2)CC1` [P-0121, 1-(4-(7-(3-fluoro-4-(trifluoromethyl)phen-oxy)-1,2,3,4-tetrahydro-isoquinoline-2-carbon-yl)piperidin-1-yl)prop-2-en-1-one]: 0.001 to 10 µM; `O=C(c1cnco1)N1CCc2ccc(Oc3ccc(C(F)(F)F)cc3)cc2C1` [P-0122, oxazol-5-yl(7-(4-(trifluoromethyl)phen-oxy)-3,4-dihydroisoquin-olin-2(1H)-yl)methanone]: 0.001 to 10 µM. As to `NS(=O)(=O)CCC(=O)N1CCc2ccc(Oc3ccc(C(F)(F)F)c(F)c3)cc2C1` [P-0123, 3-(7-(3-fluoro-4-(trifluoromethyl)phen-oxy)-3,4-dihydroisoquin-olin-2(1H)-yl)-3-oxopro-pane-1-sulfonamide], the IC50 lay in the range of 0.001 to 10 µM. Turning to `NC(=O)c1cc(C(=O)N2CCc3ccc(Oc4ccc(C(F)(F)F)cc4)cc3C2)n[nH]1` [P-0124, 3-(7-(4-(trifluorometh-yl)phenoxy)-1,2,3,4-tetrahydroisoquinoline-2-carbonyl)-1H-pyrazole-5-carboxamide], the IC50 lay in the range of 0.001 to 10 µM.
